Results: patent US20130189186A1, “APOPTOSIS IMAGING AGENTS BASED ON LANTIBIOTIC PEPTIDES” (GE HEALTHCARE LIMITED, priority 2010, published 2013)

System: phosphatidyl ethanolamine
Experiment: Biacore affinity for phosphatidyl ethanolamine (POPE/POPC liposomes captured on L1 chip)
Assay type: binding
Conditions: Biacore 3000, L1 chip, POPE/POPC liposomes (20% PE)
Description: A Biacore 3000 (GE Healthcare, Uppsala) was equipped with an L1 chip. Liposomes made of POPE/POPC (20% PE) were applied for the affinity study using the capture technique recommended by the manufacturer. Each run consisted of activation of the chip surface, immobilization of liposomes, binding of peptide and wash off of both liposomes and peptide (regeneration). Similar applications can be found in Frostell-Karlsson et al [Pharm. Sciences, V.94 (1), (2005)]. Thorough washing of needle, tubing and liquid handling system with running buffer was performed after each cycle.
BIACORE software: The BIACORE control software including all method instructions was applied. A method with commands was also written in the BIACORE Method Definition Language (MDL) to have full control over pre-programmed instructions. BIACORE evaluation software was applied for analysing the sensorgrams.

Duramycin
ka: ~20000 M⁻¹ s⁻¹
